Earlier results, collected in US20240342302A1, “DEGRADER-ANTIBODY CONJUGATES AND METHODS OF USING SAME” (Angiex, Inc., priority 2021, published 2024).

What was measured:
[1] = patients treated with CA4P

## CN(C)CC#Cc1ccc(OCCCc2sc(N3CCc4cccc(C(=O)Nc5nc6ccccc6s5)c4C3)nc2C(=O)O)c(F)c1 [A115463]
other
  toxicity in the clinic: on-target and dose-limiting thrombocytopenia

## CC1(C)CCC(c2ccc(Cl)cc2)=C(CN2CCN(c3ccc(C(=O)NS(=O)(=O)c4ccc(N[C@H](CCN5CCOCC5)CSc5ccccc5)c(S(=O)(=O)C(F)(F)F)c4)cc3)CC2)C1 [ABT 263]
other
  toxicity in the clinic: on-target and dose-limiting thrombocytopenia

## COc1ccc(/C=C\c2cc(OC)c(OC)c(OC)c2)cc1OP(=O)(O)O [CA4P]
[1]
  cardiovascular adverse events: seven patients have experienced heart attacks
